From patent US20260274892A1, “MACROCYCLIC BROAD SPECTRUM ANTIBIOTICS” (RQx Pharmaceuticals, Inc., priority 2017, published 2026)

Key:
[1] = system: Escherichia coli ATCC 25922; assay: Minimum inhibitory concentration (MIC), CLSI broth micro-dilution, E. coli; type: cell-based; details: Escherichia coli, ATCC25922, 22 h, Table 6, cation adjusted Mueller Hinton Broth + 0.002% Tween-80, 35° C.
Summary of the method: (§1)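 Antibacterial potency is measured as MIC by the CLSI broth dilution method. Bacteria at OD600 0.0005 in Tween-80-supplemented cation-adjusted Mueller Hinton broth face ten twofold compound dilutions for 22 h at 35° C.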

[2] = system: Methicillin Resistant Staphylococcus aureus strain USA 200; assay: Minimum inhibitory concentration (MIC), CLSI broth micro-dilution, S. aureus; type: cell-based; details: Staphylococcus aureus, MRSA / USA200; Table 6; MRSA USA 200; cation adjusted Mueller Hinton Broth + 0.002% Tween-80; 35° C., 22 hours
Summary of the method: as §1

Row | Structure (SMILES) | MIC [1] [µM] | MIC [2] [µM]
1 | Cc1nc(-c2ccc(C=C3CCCC3)cc2)nc(C)c1C(=O)N[C@@H](CCN)C(=O)N(C)[C@@H]1C(=O)N[C@@H](C)C(=O)N[C@H](C(=O)NCC#N)Cc2ccc(OCCN)c(c2)-c2cc1ccc2OCCN (racemic) [Compound 274, rac-(8S,11S,14S)-3,18-bis(2-aminoethoxy)-N-(cyanomethyl)-11-methyl-14-[methyl-[rac-(2S)-4-amino-2-[[2-[4-(cyclopentylidenemethyl)phenyl]-4,6-dimethyl-pyrimidine-5-carbonyl]amino]butanoyl]amino]-10,13-dioxo-9,12-diazatricyclo[13.3.1.12,6]icosa-1(18),2(20),3,5,15(19),16-hexaene-8-carboxamide] | 0.063 | 0.023
2 | Cc1nc(-c2ccc(CC3CCCC3)cc2)nc(C)c1C(=O)N[C@@H](CCN)C(=O)N(C)[C@@H]1C(=O)N[C@@H](C)C(=O)N[C@H](C(=O)NCC#N)Cc2ccc(OCCN)c(c2)-c2cc1ccc2OCCN (racemic) [Compound 275, rac-(8S,11S,14S)-3,18-bis(2-aminoethoxy)-N-(cyanomethyl)-11-methyl-14-[methyl-[rac-(2S)-4-amino-2-[[2-[4-(cyclopentylmethyl)phenyl]-4,6-dimethyl-pyrimidine-5-carbonyl]amino]butanoyl]amino]-10,13-dioxo-9,12-diazatricyclo[13.3.1.12,6]icosa-1(18),2(20),3,5,15(19),16-hexaene-8-carboxamide] | 0.094 | 0.012
3 | CCC(=Cc1ccc(-c2nc(C)c(C(=O)N[C@@H](CCN)C(=O)N(C)[C@@H]3C(=O)N[C@@H](C)C(=O)N[C@H](C(=O)NCC#N)Cc4ccc(OCCN)c(c4)-c4cc3ccc4OCCN)c(C)n2)cc1)CC (racemic) [Compound 276, rac-(8S,11S,14S)-3,18-bis(2-aminoethoxy)-N-(cyanomethyl)-11-methyl-14-[methyl-[rac-(2S)-4-amino-2-[[2-[4-(2-ethylbut-1-enyl)phenyl]-4,6-dimethyl-pyrimidine-5-carbonyl]amino]butanoyl]amino]-10,13-dioxo-9,12-diazatricyclo[13.3.1.12,6]icosa-1(18),2(20),3,5,15(19),16-hexaene-8-carboxamide] | 0.063 | 0.016
4 | CCC(CC)Cc1ccc(-c2nc(C)c(C(=O)N[C@@H](CCN)C(=O)N(C)[C@@H]3C(=O)N[C@@H](C)C(=O)N[C@H](C(=O)NCC#N)Cc4ccc(OCCN)c(c4)-c4cc3ccc4OCCN)c(C)n2)cc1 (racemic) [Compound 277, rac-(8S,11S,14S)-3,18-bis(2-aminoethoxy)-N-(cyanomethyl)-11-methyl-14-[methyl-[rac-(2S)-4-amino-2-[[2-[4-(2-ethylbutyl)phenyl]-4,6-dimethyl-pyrimidine-5-carbonyl]amino]butanoyl]amino]-10,13-dioxo-9,12-diazatricyclo[13.3.1.12,6]icosa-1(18),2(20),3,5,15(19),16-hexaene-8-carboxamide] | 0.13 | 0.016
5 | CCC/C=C/c1ccc(-c2nc(C)c(C(=O)N[C@@H](CCN)C(=O)N(C)[C@@H]3C(=O)N[C@@H](C)C(=O)N[C@H](C(=O)NCC#N)Cc4ccc(OCCN)c(c4)-c4cc3ccc4OCCN)c(C)n2)cc1 (racemic) [Compound 278, rac-(8S,11S,14S)-3,18-bis(2-aminoethoxy)-N-(cyanomethyl)-11-methyl-14-[methyl-[rac-(2S)-4-amino-2-[[4,6-dimethyl-2-[4-[rac-(E)-pent-1-enyl]phenyl]pyrimidine-5-carbonyl]amino]butanoyl]amino]-10,13-dioxo-9,12-diazatricyclo[13.3.1.12,6]icosa-1(18),2(20),3,5,15(19),16-hexaene-8-carboxamide] | 0.094 | 0.0078
